Source: US8420630B2 (Boehringer Ingelheim Pharma GmbH & Co. KG, priority 2001, dated 2013)
Structures can show the parent of a compound that is named as a salt.

Each molecule was assayed against T1, CDK1/cyclinB1 (Homo sapiens, UniProt P06493) (assay: Cyclin B1-CDK1 kinase inhibition test). Settings: CDK1 tests (Example 13); recombinant cyclin B1/CDK1, substrate histone H1; read-out: CDK1/cyclinB1 IC50 value.
T1 construct: made in house; host or cells: High Five insect cells (Trichoplusia ni), baculovirus coinfection
T1 sequence (P06493 whole entry): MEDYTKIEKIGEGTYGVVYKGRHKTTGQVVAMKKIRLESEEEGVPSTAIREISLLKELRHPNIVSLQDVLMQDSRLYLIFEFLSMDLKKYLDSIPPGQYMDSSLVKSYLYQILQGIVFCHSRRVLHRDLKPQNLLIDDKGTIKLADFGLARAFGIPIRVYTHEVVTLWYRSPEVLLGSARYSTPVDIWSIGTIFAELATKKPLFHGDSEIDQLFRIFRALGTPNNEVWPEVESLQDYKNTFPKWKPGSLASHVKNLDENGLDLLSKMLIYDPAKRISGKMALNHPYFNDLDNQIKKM
T1 sequence (P14635 whole entry partner): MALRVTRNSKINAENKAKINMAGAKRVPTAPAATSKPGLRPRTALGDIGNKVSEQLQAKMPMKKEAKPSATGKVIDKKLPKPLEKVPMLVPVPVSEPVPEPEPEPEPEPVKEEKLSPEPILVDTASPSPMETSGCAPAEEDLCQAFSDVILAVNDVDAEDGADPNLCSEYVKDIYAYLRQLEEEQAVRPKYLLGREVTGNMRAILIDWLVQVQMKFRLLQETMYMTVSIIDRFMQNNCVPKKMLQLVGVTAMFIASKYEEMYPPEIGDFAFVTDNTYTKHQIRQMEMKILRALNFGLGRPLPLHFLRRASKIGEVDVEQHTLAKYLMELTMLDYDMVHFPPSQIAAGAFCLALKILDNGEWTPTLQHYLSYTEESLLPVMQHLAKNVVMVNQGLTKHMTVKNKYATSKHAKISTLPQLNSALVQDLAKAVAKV
Format: biochemical
How it was run: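 Baculovirus-expressed CDK1/cyclin B1 phosphorylated histone H1 with ATP mix containing 0.045 mM ATP plus ^33P-ATP for 30 min at 30 °C. Protein was precipitated with TCA and filter-bound radioactivity read by scintillation counting. Olomoucin at 30 and 300 μM final served as internal control.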
For `CC(=O)NCCNc1nc(Nc2ccc(Cl)c(Cl)c2)ncc1C(F)(F)F` [Example 2(003), 2-(3,4-dichlorophenylamino)-4-(2-acetylamino-ethylamino)-5-trifluoromethyl-pyrimidine-hydrochloride], the IC50 was under 0.1 µM.
Work on `NCC1CCN(c2nc(Nc3ccc(Br)cc3)ncc2C(F)(F)F)CC1` [Example 1(043)] yielded an IC50 of under 0.1 µM.
Molecule `CN(C)C1CCC(Nc2nc(Nc3ccc(Cl)c(Cl)c3)ncc2C(F)(F)F)CC1` (centres unmarked) [Example 1(120), 2-(3,4-dichlorophenylamino)-4-(4-dimethylamino-cyclohexylamino)-5-trifluoromethyl-pyrimidine] has an IC50 of under 0.1 µM.
With `O=C1CCCN1CCCNc1nc(Nc2cccc(Br)c2)ncc1C(F)(F)F` [Example 1(047), 2-(3-bromo-phenylamino)-4-(3-(2-oxo-pyrrolidin-1-yl)-propyl-1-amino)-5-trifluoromethyl-pyrimidine] the IC50 was under 0.1 µM.
`CC(=O)NCCCNc1nc(Nc2ccc(Cl)c(Cl)c2)ncc1C(F)(F)F` [Example 7(010), N-(3-[2-(3,4-dichloro-phenylamino)-5-trifluoromethyl-pyrimidin-4-ylamino]-propyl)-acetamide] showed an IC50 of under 0.1 µM.
With `CC(=O)NCCNc1nc(Nc2ccc(S(=O)(=O)N3CC(C)NC(C)C3)cc2)ncc1C(F)(F)F` (centres unmarked) [Example 2(061), N-(2-{2-[4-(3,5-Dimethyl-piperazin-1-sulphonyl)-phenylamino]-5-trifluoromethyl-pyrimidin-4-ylamino}-ethyl)-acetamide] the IC50 was under 0.1 µM.
`CC(=O)NCCNc1nc(Nc2ccc(S(=O)(=O)C(C)C)cc2)ncc1C(F)(F)F` [Example 1(692), N-(2-{2-[4-(propane-2-sulphonyl)-phenylamino]-5-trifluoromethyl-pyrimidin-4-ylamino}-ethyl)-acetamide] showed an IC50 of under 0.1 µM.
Work on `O=C1CCCN1CCCNc1nc(Nc2ccc(Cl)c(Cl)c2)ncc1Br` [Example 1(661), 1-{3-[5-Bromo-2-(3,4-dichloro-phenylamino)-pyrimidin-4-ylamino]-propyl}-pyrrolidin-2-one] yielded an IC50 of under 0.1 µM.
`NC(=O)c1ccc(Nc2ncc(Br)c(NCCCN3CCCC3=O)n2)cc1` [Example 1(662)] was tested, and the IC50 was under 0.1 µM.
`CC(=O)NCCNc1nc(Nc2ccccc2)ncc1C(F)(F)F` [Example 2(062), N-[2-(2-phenylamino-5-trifluoromethylpyrimidin-4-ylamino)-ethyl]-acetamide] was tested, and the IC50 was under 0.1 µM.
`C#Cc1cnc(Nc2ccc(S(=O)(=O)N(C)C)cc2)nc1NCCNC(C)=O` [Example 4(001), N-{2-[2-(4-dimethylsulphamoyl-phenylamino)-5-ethynyl-pyrimidin-4-ylamino]-ethyl}-acetamide] was tested, and the IC50 was under 0.1 µM.
For `NCCNc1nc(Nc2ccc(S(=O)(=O)N3CCOCC3)cc2)ncc1C(F)(F)F` [Example 1(689), N4-(2-amino-ethyl)-N2-[4-(morpholine-4-sulphonyl)-phenyl]-5-trifluoromethyl-pyrimidine-2,4-diamine], the IC50 was under 0.1 µM.
Work on `CN(C)CC(=O)NCCCNc1nc(Nc2ccc(C(N)=O)cc2)ncc1C(F)(F)F` [Example 7(029), 4-(4-[3-(2-dimethylamino-acetylamino)-propylamino]-5-trifluoromethyl-pyrimidin-2-ylamino)-benzamide] yielded an IC50 of under 0.1 µM.
Molecule `CC(=O)NCCNc1nc(Nc2ccc(C(=O)Nc3ccccn3)cc2)ncc1C(F)(F)F` [Example 8(024), 4-[4-(2-acetylamino-ethylamino)-5-trifluoromethyl-pyrimidin-2-ylamino]-N-pyridin-2-yl-benzamide] has an IC50 of under 0.1 µM.
With `O=[N+]([O-])c1cnc(NCc2ccccc2Br)nc1N1CC[S+]([O-])CC1` [Example 1(628), 2-(2-bromo-benzylamino)-4-(S-oxido-thiomorpholino)-5-nitro-pyrimidine] the IC50 was under 0.1 µM.
With `CC(=O)N(C)CC1CCN(c2nc(Nc3ccc(Cl)cc3)ncc2[N+](=O)[O-])CC1` [Example 1(052), 2-(4-chloro-phenylamino)-4-(4-(N-acetyl-N-methyl-aminomethyl)-piperidin-1-yl)-5-nitro-pyrimidine] the IC50 was under 0.1 µM.
In the case of `NCCc1ccccc1CCNc1nc(Nc2ccc(Cl)c(Cl)c2)ncc1C(F)(F)F` [Example 1(349), 2-(3,4-dichlorophenylamino)-4-(2-(2-(2-amino-1-ethyl)-phenyl)-1-ethyl-amino)-5-trifluoromethyl-pyrimidine], the IC50 is reported as under 0.1 µM.
Work on `O=C1CCCN1CCCNc1nc(Nc2ccc3cn[nH]c3c2)ncc1C(F)(F)F` [Example 2(038), 1-{3-[2-(1H-Indazol-6-ylamino)-5-trifluoromethyl-pyrimidin-4-ylamino]-propyl}-pyrrolidin-2-one] yielded an IC50 of under 0.1 µM.
For `NC1CCCC(Nc2nc(Nc3ccc4ccccc4c3)ncc2C(F)(F)F)C1` (centres unmarked) [Example 1(039), 2-(2-naphthylamino)-4-(3-amino-cyclohexylamino)-5-trifluoromethyl-pyrimidine], the IC50 was under 0.1 µM.
`NCCCNc1nc(Nc2ccc(Cl)c(Cl)c2)ncc1C(F)(F)F` [Example 1(035), 2-(3,4-dichloro-phenylamino)-4-(3-amino-propylamino)-5-trifluoromethyl-pyrimidine] showed an IC50 of under 0.1 µM.
`O=C1CCCN1CCCNc1nc(Nc2ccc3cn[nH]c3c2)ncc1Br` [Example 2(106), 1-{3-[5-Bromo-2-(1H-indazol-6-ylamino)-pyrimidin-4-ylamino]-propyl}-pyrrolidin-2-one] showed an IC50 of under 0.1 µM.
With `CC(=O)NCCNc1nc(Nc2ccc(Cl)c(C(F)(F)F)c2)ncc1C(F)(F)F` [Example 2(013), 2-(4-chloro-3-trifluoromethyl-phenylamino)-4-(2-acetylamino-ethylamino)-5-trifluoromethyl-pyrimidine] the IC50 was under 0.1 µM.
With `Cc1cnc(Nc2ccc3cn[nH]c3c2)nc1NCCCN1CCCC1=O` [Example 2(075), 1-{3-[2-(1H-indazol-6-ylamino)-5-methyl-pyrimidin-4-ylamino]-propyl}-pyrrolidin-2-one] the IC50 was under 0.1 µM.
With `CCN(CC)C(=O)NCCCNc1nc(Nc2ccc3cnn(C)c3c2)ncc1C(F)(F)F` [Example 7(032), 1,1-diethyl-3-{3-[2-(1-methyl-1H-indazol-6-ylamino)-5-trifluoromethyl-pyrimidin-4-ylamino]-propyl}-urea] the IC50 was under 0.1 µM.
Work on `CC(=O)NCCNc1nc(Nc2ccc(Br)cc2)ncc1C(F)(F)F` [Example 2(007), 2-(4-bromophenylamino)-4-(2-acetylamino-ethylamino)-5-trifluoromethyl-pyrimidine] yielded an IC50 of under 0.1 µM.
For `CC(=O)NCCNc1nc(Nc2ccc3[nH]cnc3c2)ncc1C(F)(F)F` [Example 2(043), N-{2-[2-(1H-Benzimidazol-5-ylamino)-5-trifluoromethyl-pyrimidin-4-ylamino]-ethyl}-acetamide], the IC50 was under 0.1 µM.
For `CC(=O)NCCNc1nc(Nc2ccc(NS(=O)(=O)c3ccccc3)cc2)ncc1C(F)(F)F` [Example 10(016), N-(2-[2-(4-phenylsulphonylamido-phenylamino)-5-trifluoromethyl-pyrimidin-4-ylamino]-ethyl)-acetamide], the IC50 was under 0.1 µM.
`CC(=O)NCCNc1nc(Nc2ccc3c(cnn3C)c2)ncc1C(F)(F)F` [Example 1(655), N-{2-[2-(1-methyl-1H-indazol-5-ylamino)-5-trifluoromethyl-pyrimidin-4-ylamino]-ethyl}-acetamide] was tested, and the IC50 was under 0.1 µM.
Molecule `CC(=O)NCCNc1nc(Nc2ccc(S(=O)(=O)N(C)C)cc2)ncc1C(F)(F)F` [Example 2(047), N-{2-[2-(4-Dimethylsulphamoyl-phenylamino)-5-trifluoromethyl-pyrimidin-4-ylamino]-ethyl}-acetamide] has an IC50 of under 0.1 µM.
